Measured values taken from article PMC5463993, “Identification of an Efflux Transporter LmrB Regulating Stress Response and Extracellular Polysaccharide Synthesis in Streptococcus mutans” (Frontiers in Microbiology, 2017).

Target: T1, LmrB (Streptococcus mutans, UniProt Q8DUY5)
T1 construct: full-length (454 aa) with His-tag from pET28a, expressed in E. coli BL21 (DE3) cells; tested in whole cells
Assay: fluorometric efflux assay in E. coli BL21 (DE3) expressing LmrB versus empty vector
Assay type: cell-based
Conditions: EtBr-loaded whole cells in PBS; CCCP (100 uM) as control blocker

T1 sequence (Q8DUY5 entry or part of it): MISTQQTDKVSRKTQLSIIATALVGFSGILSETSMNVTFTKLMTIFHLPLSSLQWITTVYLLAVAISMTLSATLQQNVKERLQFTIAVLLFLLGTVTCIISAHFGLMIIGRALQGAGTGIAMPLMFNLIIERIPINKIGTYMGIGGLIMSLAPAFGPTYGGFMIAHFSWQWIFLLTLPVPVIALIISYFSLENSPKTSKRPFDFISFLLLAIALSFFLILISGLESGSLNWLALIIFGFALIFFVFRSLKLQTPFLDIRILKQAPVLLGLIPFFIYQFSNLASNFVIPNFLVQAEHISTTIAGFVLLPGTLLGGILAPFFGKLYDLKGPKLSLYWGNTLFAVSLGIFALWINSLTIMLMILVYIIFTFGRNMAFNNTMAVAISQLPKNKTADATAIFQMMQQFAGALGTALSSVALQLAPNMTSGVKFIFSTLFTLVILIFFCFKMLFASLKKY

SMILES: CC[n+]1c(-c2ccccc2)c2cc(N)ccc2c2ccc(N)cc21 [Ethidium bromide]
- fluorometric efflux assay in E. coli BL21 (DE3) expressing LmrB versus empty vec: the efflux activity of E. coli was higher for the bacterial culture harboring cloned pET28a-lmrB
